Where a name gives a salt, the structure may show the parent alone.
Assays:
[1] = system: CO2 -treated mice; experiment: Effect of improving the memories of amnesia models: CO2-induced amnesia, latency; type: in vivo, mice of ddK strain; conditions: 100 mg/kg oral
Source text: (§1) The mice were allowed to take feeds and water freely. The device comprised a dark chamber (a rectangular box 20 cm high, with a floor grid, 12 cm×15 cm) and a bright chamber (a box with an open top and a floor grid, 15 cm×15 cm, surrounded by rectangular walls, 15 cm^w ×20 cm^H, on four sides). The two chambers were in contact with each other sharing a common surface of 15 cm×20 cm which is provided with an opening through which the mouse could move freely. A stainless steel wire, which was connected to an electric impulse apparatus (manufactured by Nippon Medical and Chemical Instruments Co., Ltd.), was placed on the floor grid in the dark chamber. The bright chamber was illuminated with a 60 W electric bulb from a height of about 45 cm above the floor grid. Each mouse was placed on the floor grid in the bright chamber. Immediately after the mouse (four limbs) entered the dark chamber, it was loaded with an electroshock cf DC 50 V through the floor grid for about three seconds. Immediately after electroshock loading, the mouse was taken out from the dark chamber. […] Immediately after the acquisition trials, each mouse was left in a container filled with carbon dioxide for a period of 8 seconds to induce amnesia. A 5% aqueous suspension of each test compound in gum arabic solution was administered orally to mice immediately after carbon dioxide loading or to mice immediately after completion of the acquisition trials following scopolamine administration.

[2] = system: Scopolamine-treated mice; experiment: Effect of improving the memories of amnesia models: scopolamine-induced amnesia, latency; type: in vivo, mice of ddK strain; conditions: 100 mg/kg oral; for improvement of shortening of latency induced by scopolamine (in words): compared with calcium hopantenate and pramiracetam
Source text: as §1, with “Scopolamine, […],” for “Immediately after the acquisition trials, each mouse”, “administered intraperitoneally to mice” for “left in a container filled with carbon dioxide for a period of 8 seconds”, “amnesia 20 minutes before initiation of acquisition trials.” for “amnesia.”

[3] = system: sensitized bronchial muscle; experiment: Antiallergic action: inhibition of egg albumin-induced contraction of sensitized guinea pig bronchial muscle; type: tissue-based, guinea pigs of Hartley strain; conditions: Cavia porcellus; for inhibition at 100 µM: 10^-4 M; for inhibition at 10 µM: 10^-5 M; for inhibition at 1 µM: 10^-6 M; for inhibition at 0.1 µM: 10^-7 M; for inhibition at 0.01 µM: 10^-8 M
Protocol: Male guinea pigs of Hartley strain (body weight: about 250 g) were intraperitoneally or intramuscularly dosed with egg albumin (dose 100 mg/kg) and the same procedure was repeated after 3 days. After 3 to 4 weeks, the guinea pi-as were bled to death and the sensitized bronchial muscle was excised and cut into 1.5 mm thick rings. Three rings were joined to prepare a specimen. The specimen was suspended in a tissue bath and a load of 1 g was applied. […] After stabilization of the specimen (after about 1 hour), histamine hydrochloride was added to the bath at a final concentration of 10^-5 M. The contraction curve was recorded. After the contraction had been stabilized, the specimen was washed with 3 portions of Ringer's solution at 10-minute intervals to stabilize the contraction (about 1 hour was required). Then, the test compound was added to the tissue bath and, after an interval of 10 minutes, 5 mg/ml of egg albumin was added. The contraction amplitude of the specimen was measured and the percent inhibition was calculated according to the following formula. [formula] A: Contraction amplitude of control group when egg albumin is added A': Contraction amplitude of dosage group when egg albumin is added
H: Contraction amplitude of control group when histamine hydrochloride is added
H': Contraction amplitude of dosage group when histamine hydrochloride is added

[4] = system: mice of ddK strain; experiment: KCN anoxia test; type: in vivo; conditions: for Number of survivals/Number of mice used / Survival rate (%): KCN 2.65 mg/kg i.v. after 30 minutes, 180 seconds; for Number of survivals/Number of mice used: control 0/8; for Survival rate (%): control 0; for anti-anoxic action (in words): KCN anoxia test
[5] = Acute toxicity (LD50); conditions: mouse, in vivo; male ddK mice, 20-23 g, 10 animals per group, oral
Source text: Toxicity studies also made it clear that the terpene amino alcohols according to the present invention are of low toxicity.

[6] = cited from earlier work; for side effects: prior art
[7] = system: cerebral glucose uptake and oxidation of succinic acid in mitochondria; conditions: cited from earlier work
[8] = CO2-treated control 106.5 ± 24.9, normal mice 394.2 ± 84.0
[9] = scopolamine-treated control 83.5 ± 21.5, normal mice 394.2 ± 84.0
[10] = CO2-treated control 37.6 ± 19.6
[11] = 100 mg/kg i.p., *P < 0.05, **P < 0.01
[12] = scopolamine-treated control 54.6 ± 14.5

CC(C)(CO)[C@@H](O)C(=O)NCCCC(=O)O [Calcium hopantenate, calcium hopantenate, reference compound]
memory activating action, CO2-induced amnesia (in words) [1]: failed to show a significant memory activating action
Latency, Mean ± S.E. [1, 8]: 115.5 ± 40.6 s
Latency, Mean ± S.E. [2, 9]: 80.5 ± 17.2 s

CC(C)CCCC(C)CCCC(C)(O)C(O)CN(C)C(=O)c1cccnc1 (centres unmarked) [Compound (15), N-methyl-N-(3,7,11-trimethyl-2,3-hydroxydodecyl)nicotinamide]
inhibition at 100 µM [3]: 72.5%
inhibition at 10 µM [3]: 67%
inhibition at 1 µM [3]: 93%
memory activating action, CO2-induced amnesia (in words) [1]: showed a tendency to activate memory
Latency, Mean ± S.E. [1, 10]: 163.9 ± 49.1 s
Number of survivals/Number of mice used ([4]; 100 mg/kg i.p.): 7/9
Survival rate (%) [4, 11]: 77.8%
anti-anoxic action (in words) [4]: significantly high anti-anoxic action
Latency, Mean ± S.E. [2, 12]: 65.2 ± 20.2 s

CC(C)CCCC(C)CCCC(C)CCCC(C)(O)C(O)CN(C)C (centres unmarked) [Compound (32)]
LD50 [5]: 3880 mg/kg
inhibition at 10 µM [3]: 40%
inhibition at 1 µM [3]: 61.1%
inhibition at 0.1 µM [3]: 25%
inhibition at 0.01 µM [3]: 10%

CC(C)CCCC(C)CCCC(C)CCCC(C)(O)C(O)CN(C)CCO (centres unmarked) [Compound (35)]
inhibition at 10 µM [3]: 27.1%
inhibition at 1 µM [3]: 85.5%
inhibition at 0.1 µM [3]: 35%
inhibition at 0.01 µM [3]: 22%
memory activating action, CO2-induced amnesia (in words) [1]: showed a tendency to activate memory
Latency, Mean ± S.E. ([1]; CO2-treated control 138.2 ± 43.6, normal mice 382.4 ± 83.6): 258.4 ± 94.5 s
Number of survivals/Number of mice used ([4]; 100 mg/kg i.p.): 8/9
Survival rate (%) [4, 11]: 88.9%
anti-anoxic action (in words) [4]: significantly high anti-anoxic action
improvement of shortening of latency induced by scopolamine (in words) [2]: significantly improved the shortening of latency induced by scopolamine
Latency, Mean ± S.E. ([2]; scopolamine-treated control 169.0 ± 53.0, normal mice 382.4 ± 83.6): 320.2 ± 66.2 s

CC(C)CCCC(C)CCCC(C)CCCC(C)(O)C(O)CN(C)CCOC(=O)c1cccnc1 (centres unmarked) [Compound (36), 2-[N-(2,3-dihydroxy-3,7,11,15-tetramethylhexadecyl)-N-methylamino]ethyl nicotinate]
inhibition at 10 µM [3]: 45%
inhibition at 1 µM [3]: 20%
inhibition at 0.1 µM [3]: 8%
memory activating action, CO2-induced amnesia (in words) [1]: very significantly improved the shortening of latency induced by carbon dioxide
Latency, Mean ± S.E. [1, 10]: 216.0 ± 69.0 s
Latency, Mean ± S.E. ([1]; CO2-treated control 139.4 ± 27.5, normal mice 375.7 ± 74.9, *P < 0.05): 336.6 ± 77.8 s
improvement of shortening of latency induced by scopolamine (in words) [2]: significantly improved the shortening of latency induced by scopolamine
Latency, Mean ± S.E. [2, 12]: 78.5 ± 26.9 s
Latency, Mean ± S.E. ([2]; scopolamine-treated control 166.7 ± 36.7, normal mice 375.7 ± 74.9, *P < 0.05): 336.2 ± 55.4 s

O=C(O)c1cc(=O)c2c(OCC(O)COc3cccc4oc(C(=O)O)cc(=O)c34)cccc2o1 [Disodium cromoglicate, disodium cromoglicate, reference compound]
inhibition at 100 µM [3]: 32.1%
inhibition at 10 µM [3]: 21%
inhibition at 1 µM [3]: 7.8%
inhibition at 0.1 µM [3]: 0%
inhibition at 0.01 µM [3]: 0%
antiallergic effect (in words) ([6]; administered by the oral route): does not produce an antiallergic effect

CC(C)CCCC(C)NC(C)C (centres unmarked) [Iproheptine hydrochloride, iproheptine hydrochloride]
side effects [6]: drowsiness and nausea

CN1CCC(=C2c3ccccc3CC(=O)c3sccc32)CC1 [Ketotifen, ketotifen]
time until antiallergic effect manifests itself ([6]; delayed effect type): 4-6 weeks
side effects [6]: drowsiness

CC(C)N(CCNC(=O)CN1CCCC1=O)C(C)C [Pramiracetam, pramiracetam, reference compound]
memory activating action, CO2-induced amnesia (in words) [1]: failed to show a significant memory activating action
Latency, Mean ± S.E. [1, 8]: 175.8 ± 42.9 s
Latency, Mean ± S.E. [2, 9]: 98.1 ± 24.9 s

COc1ccc(/C=C/C(=O)Nc2ccccc2C(=O)O)cc1OC [Tranilast, tranilast, reference compound]
inhibition at 100 µM [3]: 32.1%
inhibition at 10 µM [3]: 54.8%
inhibition at 1 µM [3]: 21%
inhibition at 0.1 µM [3]: 0%
inhibition at 0.01 µM [3]: 0%
side effects [6]: cystitis-like symptoms such as hematuria, pyuria and dysuria

dihydroergotoxine mesilate [reference compound]
reported cerebral actions (in words) [7]: promotes cerebral glucose uptake and oxidation of succinic acid in mitochondria and increases the cerebral blood flow
Survival rate (%) ([4]; 3 mg/kg i.p.): 10.0%
Number of survivals/Number of mice used ([4]; 3 mg/kg i.p.): 1/10
anti-anoxic action (in words) [4]: not sufficiently remarkable

Reference: patent publication US5284850A, “Terpene amino alcohols and medicinal uses thereof” (Kuraray Co., Ltd., priority 1985, dated 1994)
